Test results from paper PMC3711795 (Nature, 2012).

Columns and labels:
[1] = target: hydrosulfide ion channel (HSC) from Clostridium difficile (Clostridium difficile strain 630); assay: crystal structure
[2] = target: T1, HSC / FNT3 (hydrosulfide ion channel) (Clostridioides difficile, UniProt Q186B7); conditions: 450 µM 14C-formate; pH 8.0; competing permeant anion, competitive
T1 sequence (Q186B7 2-258): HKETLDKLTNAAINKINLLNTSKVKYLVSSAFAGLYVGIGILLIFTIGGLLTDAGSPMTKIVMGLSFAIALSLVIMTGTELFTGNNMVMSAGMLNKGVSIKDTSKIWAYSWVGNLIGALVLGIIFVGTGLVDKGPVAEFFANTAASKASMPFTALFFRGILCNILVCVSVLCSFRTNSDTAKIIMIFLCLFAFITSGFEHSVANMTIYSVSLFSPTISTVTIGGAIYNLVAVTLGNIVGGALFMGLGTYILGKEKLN

hydrosulfide ion channel (HSC) from Clostridium difficile (natural protein)
stoichiometry N [1]: 5

S [HS^−]
% inhibition at 15 mM [2]: 90%

O=NO [nitrite]
% inhibition at 15 mM [2]: 70%
